Test results taken from BigSolDB 2.1.

COc1c2occc2c(OC)c2c(=O)cc(C)oc12
solubility (mole fraction)
Settings	in DMSO	in ethanol	in isopropanol	in methanol	in n-butanol	in water
298.15 K	0.0128	0.00255	0.00195	0.00271	0.00355	1.33e-05
303.15 K	0.0131	0.00282	0.002	0.00272	0.00375	1.23e-05
308.15 K	0.0131	0.00298	0.00209	0.003	0.00372	1.88e-05
313.15 K	0.0132	0.00311	0.00228	0.00314	0.00399	1.88e-05
318.15 K	0.0141	0.00338	0.00233	0.00318	0.00435	3.69e-05
323.15 K	0.0152	0.00338	0.00253	0.00332	0.00529	9.02e-05

Settings	solubility (mole fraction)
in PEG-200, 298.15 K	0.00171
in PEG-200, 303.15 K	0.00149
in PEG-200, 308.15 K	0.00173
in PEG-200, 313.15 K	0.00199
in PEG-200, 318.15 K	0.00202
in PEG-200, 323.15 K	0.00231
in PEG-400, 298.15 K	0.00438
in PEG-400, 303.15 K	0.00425
in PEG-400, 308.15 K	0.00448
in PEG-400, 313.15 K	0.00453
in PEG-400, 318.15 K	0.00448
in PEG-400, 323.15 K	0.00511
